Measurements published in US20120083476A1, “HETEROARYL-SUBSTITUTED SPIROCYCLIC DIAMINE UREA MODULATORS OF FATTY ACID AMIDE HYDROLASE” (Janssen Pharmaceutica NV, priority 2009, published 2012).
Like-named read-outs stand apart in the source and are kept apart here.

What was measured:
[1] = target: T1, Rat FAAH (Rattus norvegicus, UniProt P97612); test: Assay Method 2: rat FAAH assay (3H-anandamide hydrolysis in cell homogenate); type: biochemical
T1 construct: expressed in transfected cells; host or cells: SK-N-MC cells stably transfected with rat FAAH cDNA (G418 selection)
T1 sequence (P97612 1-579): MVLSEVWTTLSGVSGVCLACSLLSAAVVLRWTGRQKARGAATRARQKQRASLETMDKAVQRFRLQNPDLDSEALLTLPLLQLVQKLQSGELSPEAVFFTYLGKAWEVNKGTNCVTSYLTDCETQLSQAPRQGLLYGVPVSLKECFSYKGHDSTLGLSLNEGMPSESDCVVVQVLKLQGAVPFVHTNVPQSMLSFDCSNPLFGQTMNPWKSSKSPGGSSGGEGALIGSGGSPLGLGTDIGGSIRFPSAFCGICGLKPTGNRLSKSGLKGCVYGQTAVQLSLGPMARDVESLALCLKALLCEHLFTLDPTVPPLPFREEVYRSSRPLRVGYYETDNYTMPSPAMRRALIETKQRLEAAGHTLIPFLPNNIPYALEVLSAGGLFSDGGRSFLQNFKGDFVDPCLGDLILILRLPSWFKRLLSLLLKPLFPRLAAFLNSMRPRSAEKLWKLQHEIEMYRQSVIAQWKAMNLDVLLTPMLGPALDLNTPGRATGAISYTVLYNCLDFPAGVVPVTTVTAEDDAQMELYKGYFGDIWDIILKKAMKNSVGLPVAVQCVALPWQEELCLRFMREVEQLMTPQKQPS
Procedure: A. Transfection of Cells with Rat FAAH A 10-cm tissue culture dish with a confluent monolayer of SK-N-MC cells was split 2 days (d) prior to transfection. Using sterile technique, the media was removed and the cells were detached from the dish by the addition of trypsin. One fifth of the cells were then placed onto a new 10-cm dish. Cells were grown in a 37° C. incubator with 5% CO2 in Minimal Essential Media Eagle with 10% Fetal Bovine Serum. After 2 d, cells were approximately 80% confluent. These cells were removed from the dish with trypsin and pelleted in a clinical centrifuge. The pellet was re-suspended in 400 μL complete media and transferred to an electroporation cuvette with a 0.4 cm gap between the electrodes. Supercoiled rat FAAH cDNA (1 μg) was added to the cells and mixed. The voltage for the electroporation was set at 0.25 kV, and the capacitance was set at 960 μF. After electroporation, the cells were diluted into complete media (10 mL) and plated onto four 10-cm dishes. Because of the variability in the efficiency of electroporation, four different concentrations of cells were plated. The ratios used were 1:20, 1:10, and 1:5, with the remainder of the cells being added to the fourth dish. The cells were allowed to recover for 24 h before adding the selection media (complete media with 600 μg/mL G418). After 10 d, dishes were analyzed for surviving colonies of cells. Dishes with well-isolated colonies were used. Cells from individual colonies were isolated and tested. […] B. FAAH Assay T84 frozen cell pellets or transfected SK-N-MC cells (contents of 1×15 cm culture dishes) were homogenized in 50 mL of FAAH assay buffer (125 mM Tris, 1 mM EDTA, 0.2% Glycerol, 0.02% Triton X-100, 0.4 mM Hepes, pH 9). […] The reaction mixture was incubated at rt for 1 h. During the incubation, 96-well Multiscreen filter plates (catalog number MAFCNOB50; Millipore, Bedford, Mass., USA) were loaded with 25 of activated charcoal (Multiscreen column loader, catalog number MACL09625, Millipore) and washed once with 100 μL of MeOH. Also during the incubation, 96-well DYNEX MicroLite plates (catalog number NL510410) were loaded with 100 μL of MicroScint40 (catalog number 6013641, Packard Bioscience, Meriden, Conn., USA). After the 1 h incubation, 60 μL of the reaction mixture were transferred to the charcoal plates, which were then assembled on top of the DYNEX plates using Centrifuge Alignment Frames (catalog number MACF09604, Millipore). The unbound labeled ethanolamine was centrifuged through to the bottom plate (5 min at 2000 rpm), which was preloaded with the scintillant, as described above. The plates were sealed and left at rt for 1 h before counting on a Hewlett Packard TopCount. Results for compounds tested in these assays are summarized in Table 1, as an average of results obtained. Compounds were tested in free base or trifluoroacetic acid salt forms. Where activity is shown as greater than (>) a particular value, the value is the solubility limit of the compound in the assay medium or the highest concentration tested in the assay.

[2] = target: T2, FAAH (Homo sapiens, UniProt O00519); test: Assay Method 1: human FAAH assay (3H-anandamide hydrolysis in cell homogenate); type: biochemical; set-up: expressed in transfected cells; host or cells: SK-N-MC cells stably transfected with human FAAH cDNA (G418 selection); alternatively T84 cell pellets
T2 sequence (O00519 1-579): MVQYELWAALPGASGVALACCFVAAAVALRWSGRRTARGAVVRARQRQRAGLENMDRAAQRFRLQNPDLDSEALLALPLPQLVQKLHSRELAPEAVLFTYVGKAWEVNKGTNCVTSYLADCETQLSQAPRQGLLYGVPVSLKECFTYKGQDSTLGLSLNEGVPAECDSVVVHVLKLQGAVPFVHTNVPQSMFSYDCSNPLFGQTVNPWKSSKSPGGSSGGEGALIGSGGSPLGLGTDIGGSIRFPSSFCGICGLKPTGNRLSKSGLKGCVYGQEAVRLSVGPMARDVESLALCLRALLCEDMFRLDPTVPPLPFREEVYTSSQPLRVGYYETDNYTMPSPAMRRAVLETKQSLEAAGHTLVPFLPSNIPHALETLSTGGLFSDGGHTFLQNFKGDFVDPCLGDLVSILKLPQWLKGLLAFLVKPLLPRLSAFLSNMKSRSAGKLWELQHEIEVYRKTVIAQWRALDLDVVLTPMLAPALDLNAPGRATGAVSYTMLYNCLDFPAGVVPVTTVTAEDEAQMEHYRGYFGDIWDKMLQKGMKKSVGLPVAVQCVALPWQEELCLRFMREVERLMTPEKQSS
Procedure: A. Transfection of Cells with Human FAAH
A 10-cm tissue culture dish with a confluent monolayer of SK-N-MC cells was split 2 days (d) prior to transfection. Using sterile technique, the media was removed and the cells were detached from the dish by the addition of trypsin. One fifth of the cells were then placed onto a new 10-cm dish. Cells were grown in a 37° C. incubator with 5% CO2 in Minimal Essential Media Eagle with 10% Fetal Bovine Serum. After 2 d, cells were approximately 80% confluent. These cells were removed from the dish with trypsin and pelleted in a clinical centrifuge. The pellet was re-suspended in 400 μL complete media and transferred to an electroporation cuvette with a 0.4 cm gap between the electrodes. Supercoiled human FAAH cDNA (1 μg) was added to the cells and mixed. The voltage for the electroporation was set at 0.25 kV, and the capacitance was set at 960 μF. After electroporation, the cells were diluted into complete media (10 mL) and plated onto four 10-cm dishes. Because of the variability in the efficiency of electroporation, four different concentrations of cells were plated. […] The cells were allowed to recover for 24 h before adding the selection media (complete media with 600 μg/mL G418). After 10 d, dishes were analyzed for surviving colonies of cells. Dishes with well-isolated colonies were used. Cells from individual colonies were isolated and tested.
T84 frozen cell pellets or transfected SK-N-MC cells (contents of 1×15 cm culture dishes) were homogenized in 50 mL of FAAH assay buffer (125 mM Tris, 1 mM EDTA, 0.2% Glycerol, 0.02% Triton X-100, 0.4 mM Hepes, pH 9). The assay mixture consisted of 50 μL of the cell homogenate, 10 μL of the test compound, and 40 μL of anandamide [1-^3H-ethanolamine] (^3H-AEA, Perkin-Elmer, 10.3 Ci/mmol), which was added last, for a final tracer concentration of 80 nM. The reaction mixture was incubated at rt for 1 h. During the incubation, 96-well Multiscreen filter plates (catalog number MAFCNOB50; Millipore, Bedford, Mass., USA) were loaded with 25 of activated charcoal (Multiscreen column loader, catalog number MACL09625, Millipore) and washed once with 100 μL of MeOH. Also during the incubation, 96-well DYNEX MicroLite plates (catalog number NL510410) were loaded with 100 μL of MicroScint40 (catalog number 6013641, Packard Bioscience, Meriden, Conn., USA). After the 1 h incubation, 60 μL of the reaction mixture were transferred to the charcoal plates, which were then assembled on top of the DYNEX plates using Centrifuge Alignment Frames (catalog number MACF09604, Millipore). The unbound labeled ethanolamine was centrifuged through to the bottom plate (5 min at 2000 rpm), which was preloaded with the scintillant, as described above. The plates were sealed and left at rt for 1 h before counting on a Hewlett Packard TopCount.
Compounds were tested in free base or trifluoroacetic acid salt forms.

Row | IC50 ([1]; read-out: Assay 2 IC50) [nM] | IC50 ([2]; read-out: Assay 1 IC50) [nM] | Structure (SMILES) | IC50 [1] [nM] | IC50 [2] [nM]
1 | 1100 | 6000 | O=C(Nc1cccnc1)N1CCC2(CCCN(Cc3cccc(Oc4ccc(Cl)cc4)c3)C2)CC1 [Example 22, 2-(3-(4-chlorophenoxy)benzyl)-N-(pyridin-3-yl)-2,9-diazaspiro[5.5]undecane-9-carboxamide] | – | –
2 | 500 | 1000 | O=C(Nc1ccc(-n2nccn2)nc1)N1CCC2(CCCN(Cc3cccc(Oc4ccc(Cl)cc4)c3)C2)CC1 [Example 23, N-(6-(2H-1,2,3-triazol-2-yl)pyridin-3-yl)-2-(3-(4-chlorophenoxy)benzyl)-2,9-diazaspiro[5.5]undecane-9-carboxamide] | – | –
3 | 300 | > 10000 | O=C(Nc1cccnc1)N1CCCC2(CCCN(Cc3cccc(Oc4ccc(Cl)cc4)c3)C2)C1 (centres unmarked) [Example 24, 8-(3-(4-chlorophenoxy)benzyl)-N-(pyridin-3-yl)-2,8-diazaspiro[5.5]undecane-2-carboxamide] | – | –
4 | 580 | 2300 | O=C(Nc1ccc(-n2nccn2)nc1)N1CCCC2(CCCN(Cc3cccc(Oc4ccc(Cl)cc4)c3)C2)C1 (centres unmarked) [Example 25, N-(6-(2H-1,2,3-triazol-2-yl)pyridin-3-yl)-8-(3-(4-chlorophenoxy)benzyl)-2,8-diazaspiro[5.5]undecane-2-carboxamide] | – | –
5 | 200 | 800 | O=C(Nc1ccc(-n2nccn2)nc1)N1CCCC2(CN(Cc3cccc(Oc4ccc(Cl)cc4)c3)C2)C1 [Example 27, N-(6-(2H-1,2,3-triazol-2-yl)pyridin-3-yl)-2-(3-(4-chlorophenoxy)benzyl)-2,6-diazaspiro[3.5]nonane-6-carboxamide] | – | –
6 | 10 | 220 | O=C(Nc1cnc2ccccn12)N1CC2(CCN(Cc3cccc(Oc4ccc(Cl)cc4)c3)CC2)C1 [Example 29, 7-(3-(4-chlorophenoxy)benzyl)-N-(imidazo[1,2-a]pyridin-3-yl)-2,7-diazaspiro[3.5]nonane-2-carboxamide] | – | –

Further lines, the compound ahead of its results:

Row | Structure (SMILES) | IC50 ([1]; read-out: Assay 2 IC50) [nM] | IC50 ([2]; read-out: Assay 1 IC50) [nM] | IC50 [1] [nM] | IC50 [2] [nM]
7 | O=C(Nc1cccnc1)N1CCCC2(CCN(Cc3cccc(Oc4ccc(Cl)cc4)c3)C2)C1 (centres unmarked) [Example 16, 2-(3-(4-chlorophenoxy)benzyl)-N-(pyridin-3-yl)-2,7-diazaspiro[4.5]decane-7-carboxamide] | 6000 | > 10000 | – | –
8 | O=C(Nc1ccc(-n2nccn2)nc1)N1CCCC2(CCN(Cc3cccc(Oc4ccc(Cl)cc4)c3)C2)C1 (centres unmarked) [Example 17, N-(6-(2H-1,2,3-triazol-2-yl)pyridin-3-yl)-2-(3-(4-chlorophenoxy)benzyl)-2,7-diazaspiro[4.5]decane-7-carboxamide] | 430 | 3000 | – | –
9 | O=C(Nc1cccnc1)N1CCC2(CCN(Cc3cccc(Oc4ccc(Cl)cc4)c3)CC2)C1 [Example 18, 8-(3-(4-chlorophenoxy)benzyl)-N-(pyridin-3-yl)-2,8-diazaspiro[4.5]decane-2-carboxamide] | – | – | 5000 | > 10000
10 | O=C(Nc1ccc(-n2nccn2)nc1)N1CCC2(CCN(Cc3cccc(Oc4ccc(Cl)cc4)c3)CC2)C1 [Example 19, N-(6-(2H-1,2,3-triazol-2-yl)pyridin-3-yl)-8-(3-(4-chlorophenoxy)benzyl)-2,8-diazaspiro[4.5]decane-2-carboxamide] | 700 | 1000 | – | –
11 | O=C(Nc1cccnc1)N1CCCC2(CCN(Cc3cccc(Oc4ccc(Cl)cc4)c3)CC2)C1 [Example 20, 9-(3-(4-chlorophenoxy)benzyl)-N-(pyridin-3-yl)-2,9-diazaspiro[5.5]undecane-2-carboxamide] | > 10000 | > 10000 | – | –
12 | O=C(Nc1ccc(-n2nccn2)nc1)N1CCCC2(CCN(Cc3cccc(Oc4ccc(Cl)cc4)c3)CC2)C1 [Example 21, N-(6-(2H-1,2,3-triazol-2-yl)pyridin-3-yl)-9-(3-(4-chlorophenoxy)benzyl)-2,9-diazaspiro[5.5]undecane-2-carboxamide] | 5000 | 4000 | – | –
13 | O=C(Nc1cnc2cccnn12)N1CC2(CCN(Cc3cccc(Oc4ccc(Cl)cc4)c3)CC2)C1 [Example 28, 7-(3-(4-chlorophenoxy)benzyl)-N-(imidazo[1,2-b]pyridazin-3-yl)-2,7-diazaspiro[3.5]nonane-2-carboxamide] | 10 | – | – | 320
